Structures can show the parent of a compound that is named as a salt. Where two headings read alike, the source gives them in different places.
Assays:
[1] = biological target: acetylcholinesterase (Homo sapiens, UniProt P22303); test: biochemical
[2] = system: mice; test: Dark Avoidance Assay (reversal of scopolamine induced memory deficit); assay type: in vivo; details: retest after 24 hours
Procedure: In this assay mice are tested for their ability to remember an unpleasant stimulus for a period of 24 hours. A mouse is placed in a chamber that contains a dark compartment; a srong incandescent light drives it to the dark compartment, where an electric shock is administered through metal plates on the floor. The animal is removed from the testing apparatus and tested again, 24 hours later, for the ability to remember the electric shock.
If scopolamine, an anticholinergic that is known to cause memory impairment, is administered before an animal's initial exposure to the test chamber, the animal re-enters the dark compartment shortly after being placed in the test chamber 24 hours later.

acetylcholinesterase, sequence (P22303 32-614): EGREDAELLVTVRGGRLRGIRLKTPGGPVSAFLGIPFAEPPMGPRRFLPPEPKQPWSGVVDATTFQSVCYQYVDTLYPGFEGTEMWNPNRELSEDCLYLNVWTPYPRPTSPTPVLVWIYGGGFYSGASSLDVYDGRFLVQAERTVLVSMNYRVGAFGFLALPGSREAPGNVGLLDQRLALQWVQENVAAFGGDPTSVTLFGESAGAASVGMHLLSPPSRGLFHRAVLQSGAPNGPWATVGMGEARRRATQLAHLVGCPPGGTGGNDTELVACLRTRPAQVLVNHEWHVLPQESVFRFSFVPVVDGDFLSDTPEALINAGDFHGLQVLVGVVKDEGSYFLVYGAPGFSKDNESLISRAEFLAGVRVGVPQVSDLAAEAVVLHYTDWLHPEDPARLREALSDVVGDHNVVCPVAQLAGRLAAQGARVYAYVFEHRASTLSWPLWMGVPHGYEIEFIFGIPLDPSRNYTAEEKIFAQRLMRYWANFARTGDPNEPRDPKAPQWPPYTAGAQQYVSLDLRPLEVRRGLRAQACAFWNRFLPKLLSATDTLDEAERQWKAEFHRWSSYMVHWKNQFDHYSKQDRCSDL

| Compound | IC50 [1] | % Animals with Scopolamine Induced memory deficit reversed ([2]; dose 1.0 mg/kg s.c.) | other results |
| --- | --- | --- | --- |
| c1ccc(CONc2c3c(nc4ccccc24)CCCC3)cc1 [N-Benzyloxy-1,2,3,4-tetrahydro-9-acridinamine] | 6.1 µM | – | – |
| CON(C)c1c2c(nc3ccccc13)CCCC2 [N-Methoxy-N-methyl-1,2,3,4-tetrahydro-9-acridinamnine hydrochloride] | – | 27% | IC50 ([1]; read-out: Cholinesterase Inhibition IC50): 27 µM |
| CONc1c2c(nc3ccccc13)CCCC2.Cl [N-Methoxy-1,2,3,4-tetrahydro-9-acridinamine hydrochloride] | 0.51 µM | 27% | – |
| Fc1ccccc1CONc1c2c(nc3ccccc13)CCCC2 [N-(2-Fluorobenzyloxy)-1,2,3,4-tetrahydro-9-acridinamine] | 5.2 µM | – | – |
| CCCONc1c2c(nc3ccccc13)CCCC2 [N-Propyloxy-1,2,3,4-tetrahydro-9-acridinamine, oxalate, hemihydrate] | – | – | IC50 ([1]; read-out: Cholinesterase Inhibition IC50, photometric method of Ellman et al.): 0.83 µM |
| Nc1c2c(nc3ccccc13)CCCC2 [9-Amino-1,2,3,4-tetrahydroacridine, reference compound] | – | – | % Animals with Scopolamine Induced memory deficit reversed ([2]; dose 0.31 mg/kg s.c.): 20% |

Reference: patent publication US6248750A, “9-hydroxyamino tetrahydroacridine and related compounds” (Hoechst Roussel Pharmaceuticals, priority 2000, dated 2001)
